Experimental data taken from US5624923A, “Tricyclic diazepine vasopressin antagonists and oxytocin antagonists” (priority 1995, dated 1997).

Assays:
oxytocin receptors = molecular target: T1, oxytocin receptors (Rattus norvegicus, UniProt P70536); test: Oxytocin Receptor Binding; details: for IC50: 1.0 nM [3H]oxytocin
T1 construct: The uteri are dissected out, cleaned of fat and connective tissues; from tissue; host or cells: uterus of DES-treated female Sprague-Dawley rats
T1 sequence (P70536 1-388): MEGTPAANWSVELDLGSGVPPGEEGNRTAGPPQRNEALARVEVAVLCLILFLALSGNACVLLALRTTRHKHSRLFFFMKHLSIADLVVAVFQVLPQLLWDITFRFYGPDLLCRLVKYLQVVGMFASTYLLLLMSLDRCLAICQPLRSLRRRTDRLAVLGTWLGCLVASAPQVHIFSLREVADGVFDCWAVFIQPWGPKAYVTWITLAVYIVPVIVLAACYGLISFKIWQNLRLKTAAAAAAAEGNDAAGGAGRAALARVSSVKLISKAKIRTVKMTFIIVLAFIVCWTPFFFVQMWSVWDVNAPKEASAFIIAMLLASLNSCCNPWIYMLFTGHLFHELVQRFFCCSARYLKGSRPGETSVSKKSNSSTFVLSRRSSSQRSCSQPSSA
Method in brief: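 Membranes from uteri of DES-primed (0.3 mg/kg i.m., 18 h) female Sprague-Dawley rats. Competition with 1.0 nM [3H]oxytocin in 50 mM Tris.HCl pH 7.4, 5 mM MgCl2 with protease inhibitors, 60 min at 22 °C, filtration read-out. Non-specific binding with 1.0 uM unlabeled OT; IC50 calculated.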

Rat Hepatic V1 Receptors = molecular target: T2, Rat Hepatic V1 Receptors (Rattus norvegicus, UniProt P30560); test: Binding Assay to Rat Hepatic V1 Receptors; details: for IC50: rat liver membranes, read-out: V1 IC50; for inhibition at 10 µM: 2 h, rat
T2 construct: Rat liver plasma membranes expressing the vasopressin V1 receptor subtypes; from tissue; host or cells: rat liver plasma membranes
T2 sequence (P30560 whole entry): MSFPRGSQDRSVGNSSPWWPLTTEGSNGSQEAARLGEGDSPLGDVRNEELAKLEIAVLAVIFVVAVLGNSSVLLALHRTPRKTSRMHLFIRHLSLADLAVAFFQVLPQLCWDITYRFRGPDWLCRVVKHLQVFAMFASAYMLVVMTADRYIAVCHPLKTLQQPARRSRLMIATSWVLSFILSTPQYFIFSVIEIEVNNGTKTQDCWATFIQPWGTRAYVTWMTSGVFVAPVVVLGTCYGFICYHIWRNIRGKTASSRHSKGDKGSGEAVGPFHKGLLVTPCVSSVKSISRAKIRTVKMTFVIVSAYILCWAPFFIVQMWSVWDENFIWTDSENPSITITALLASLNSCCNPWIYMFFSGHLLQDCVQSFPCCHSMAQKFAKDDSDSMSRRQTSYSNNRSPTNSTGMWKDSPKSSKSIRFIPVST

Vasopressin V2 = Vasopressin V2 Antagonist Activity in Conscious Hydrated Rats; format: in vivo, rat; details: AVP 0.4 μg/kg i.p.
Method in brief: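 Four-hour urine output, osmolality and electrolytes (Na+, K+, Cl−) recorded in water-loaded rats (30 mL/kg deionized water orally) given AVP i.p. at 0.4 μg/kg. Test compounds were given orally at 0.1–100 mg/kg 1 h before AVP; 2–4 rats per compound.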

Row | Structure (SMILES) | IC50 (oxytocin receptors) [nM] | inhibition at 10 µM (oxytocin receptors; [3H]oxytocin) [%] | IC50 (Rat Hepatic V1 Receptors) [nM] | inhibition at 10 µM (Rat Hepatic V1 Receptors) [%] | inhibition at 2.5 µM (oxytocin receptors; dose 2.5 μM, [3H]oxytocin) [%] | Osmolality (Vasopressin V2; 10 mg/kg orally) [mOsm/kg] | Urine Volume (Vasopressin V2; 10 mg/kg orally) [ml/4 hrs] | Osmolality (Vasopressin V2; 1 mg/kg orally) [mOsm/kg] | Urine Volume (Vasopressin V2; 1 mg/kg orally) [ml/4 hrs] | Osmolality (Vasopressin V2; 3 mg/kg orally) [mOsm/kg] | Urine Volume (Vasopressin V2; 3 mg/kg orally) [ml/4 hrs] | Osmolality (Vasopressin V2; 30 mg/kg orally) [mOsm/kg] | Urine Volume (Vasopressin V2; 30 mg/kg orally) [ml/4 hrs]
1 | O=C(Nc1ccc(C(=O)N2Cc3cccn3Cc3ccccc32)cc1)C(O)c1ccccc1 (racemic) [Example 588, (±) α-Hydroxy-N-[4-(5H-pyrrolo[2,1c][1,4]benzodiazepin-10(11H)-ylcarbonyl)phenyl]benzeneacetamide] | 2000 | 90 | 40 |  |  | 687 | 9.5 |  |  |  |  |  | 
2 | NC(=O)CNC(C(=O)Nc1ccc(C(=O)N2Cc3cccn3Cc3ccccc32)cc1)c1ccccc1 (stereo not drawn) [Example 585] | 4700 | 70 | 280 |  |  | 1483 | 3.3 |  |  |  |  |  | 
3 | COC(=O)c1ccc2n1Cc1ccccc1N(C(=O)c1ccc(NC(=O)c3ccc(Cl)cc3Cl)cc1)C2 [Example 593] | 1100 | 82 | 210 |  |  | 577 | 11.8 |  |  |  |  |  | 
4 | Cc1ccccc1C(=O)Nc1ccc(C(=O)N2Cc3ccc(C(=O)C(F)(F)F)n3Cc3ccccc32)c(Cl)c1 [Example 595, N-[4-[[3-(Trifluoroacetyl)-5H-pyrrolo[2,1-c][1,4]benzodiazepin-10(11H)-yl]carbonyl]-3-chlorophenyl]-2-methylbenzamide] |  | 49 |  | 57 |  | 1474 | 8.3 |  |  |  |  |  | 
5 | O=C(CN1CCOCC1)Nc1ccc(C(=O)N2Cc3cccn3Cc3ccccc32)cc1 [Example 590, N-[4-(5H-pyrrolo[2,1-c][1,4]benzodiazepin-10(11H)-ylcarbonyl)phenyl]-4-morpholineacetamide] |  | 12 |  | 89 |  | 1355 | 3 |  |  |  |  |  | 
6 | O=C(Nc1ccc(C(=O)N2Cc3ccc(C(=O)C(F)(F)F)n3Cc3ccccc32)cc1)c1ccccc1C(F)(F)F [Example 594] |  | 19 |  | 78 |  | 1172 ± 182 | 4.9 ± 1.2 |  |  |  |  |  | 
7 | O=C(Nc1ccc(C(=O)N2Cc3ccc(CO)n3Cc3ccccc32)cc1)c1ccc(Cl)cc1Cl [Example 581, 2,4-Dichloro-N-[4-[[3-(hydroxymethyl)-5H-pyrrolo[2,1-c][1,4]benzodiazepin-10(11H)-yl]carbonyl]phenyl]benzamide] | 200 | 99 | 21 |  |  | 941 ± 219 | 4 ± 1.2 |  |  |  |  |  | 
8 | Cc1cccc(NC(=O)c2ccc(C(=O)N3Cc4cccn4Cc4ccccc43)cc2)c1C [Example 485, N-(2,3-Dimethylphenyl)-4-(5H-pyrrolo[2,1-c][1,4]benzodiazepin-10(11H)-ylcarbonyl)benzamide] | 2200 | 86 | 240 |  |  | 961 | 4 |  |  |  |  |  | 

The next lines start with results.

Row | IC50 (oxytocin receptors) [nM] | inhibition at 10 µM (oxytocin receptors; [3H]oxytocin) [%] | IC50 (Rat Hepatic V1 Receptors) [nM] | inhibition at 10 µM (Rat Hepatic V1 Receptors) [%] | inhibition at 2.5 µM (oxytocin receptors; dose 2.5 μM, [3H]oxytocin) [%] | Structure (SMILES) | Osmolality (Vasopressin V2; 10 mg/kg orally) [mOsm/kg] | Urine Volume (Vasopressin V2; 10 mg/kg orally) [ml/4 hrs] | Osmolality (Vasopressin V2; 1 mg/kg orally) [mOsm/kg] | Urine Volume (Vasopressin V2; 1 mg/kg orally) [ml/4 hrs] | Osmolality (Vasopressin V2; 3 mg/kg orally) [mOsm/kg] | Urine Volume (Vasopressin V2; 3 mg/kg orally) [ml/4 hrs] | Osmolality (Vasopressin V2; 30 mg/kg orally) [mOsm/kg] | Urine Volume (Vasopressin V2; 30 mg/kg orally) [ml/4 hrs]
9 | 350 | 92 | 23 |  |  | O=C(Nc1ccc(C(=O)N2Cc3cccn3Cc3ccccc32)cc1)c1ccc(Cl)cc1Cl [Example 6, N-[4-(5H-pyrrolo[2,1-c][1,4]benzodiazepin-10(11H)-ylcarbonyl)phenyl]-2,4-dichlorobenzamide] | 346 ± 25 | 20.4 ± 1.1 | 970 | 6 | 519 ± 30 | 15 ± 1.6 | 616 ± 87 | 17.9 ± 1.3
10 |  | 44 |  | 61 |  | COC(=O)c1ccc(C(=O)Nc2ccc(C(=O)N3Cc4cccn4Cc4ccccc43)cc2)cc1 [Example 489] | 1194 | 6.1 |  |  |  |  |  | 
11 |  | 0 | 890 |  |  | Cc1ccccc1C(=O)Nc1c(C)cc(C(=O)N2Cc3cccn3Cc3ccccc32)cc1C [Example 472] | 1453 | 4.3 |  |  |  |  |  | 
12 |  | 31 | 1200 |  |  | O=C(Nc1ccc(C(=O)N2Cc3cccn3-c3ccccc32)cc1)c1ccc(Cl)cc1Cl [Example 17, N-[4-(pyrrolo(1,2-a]quinoxalin-5(4H)-ylcarbonyl)phenyl]-2,4-dichloro-benzamide] |  |  |  |  |  |  | 1374 | 4.1
13 | 820 | 94 | 84 |  |  | O=C(Nc1ccc(C(=O)N2Cc3cccn3Cc3ccccc32)cc1)c1sccc1Cl [Example 476, N-[4-(5H-pyrrolo[2,1-c][1,4]benzodiazepin-10(11H)-ylcarbonyl)phenyl]-3-chlorothiophene-2-carboxamide] | 1233 | 5 |  |  |  |  |  | 
14 | 220 |  | 54 |  | 92 | Cc1ccccc1C(=O)Nc1ccc(C(=O)N2Cc3cccn3Cc3ccccc32)c(Cl)c1 [Example 470] | 387 | 17 |  |  |  |  |  | 
15 | 350 | 92 | 46 |  |  | O=C(Nc1ccc(C(=O)N2Cc3cccn3Cc3ccccc32)cc1)c1cc(Cl)cc(Cl)c1Cl [Example 599, N-[4-(5H-Pyrrolo[2,1-c][1,4]benzodiazepin-10(11H)-ylcarbonyl)phenyl]-2,3,5-trichlorobenzamide] | 407 | 18 |  |  |  |  |  | 
16 | 320 | 91 | 210 |  |  | Cc1c(F)cccc1C(=O)Nc1ccc(C(=O)N2Cc3ccnn3Cc3ccccc32)cc1 [Example 517, N-[4-(4H-Pyrazolo[5,1-c][1,4]benzodiazepin-5(10H)-ylcarbonyl)phenyl]-3-fluoro-2-methylbenzamide] | 411 | 14.7 |  |  |  |  |  | 
17 | 360 | 90 | 38 |  |  | Cc1ccccc1C(=O)Nc1ccc(C(=O)N2Cc3cccn3Cc3ccccc32)cc1 [Example 3, 2-Methyl-N-[4-(5H-pyrrolo[2,1-c][1,4]-benzodiazepin-10(11H)-ylcarbonyl)phenyl]benzamide] | 567 ± 33 | 15.8 ± 1 | 515 ± 79 | 6.5 ± 1 | 584 ± 56 | 9.6 ± 0.9 |  | 
18 | 130 | 97 | 10 |  |  | O=C(Nc1ccc(C(=O)N2Cc3cccn3Cc3ccccc32)cc1)c1ccccc1Cl [Example 7] | 780 | 9 |  |  |  |  | 815 | 12.4
